From ChEMBL document CHEMBL5291721, “A preclinical secondary pharmacology resource illuminates target-adverse drug reaction associations of marketed drugs” (Nat Commun, 2023)

What was measured:
Adenosine receptor A1 = target: T1, Adenosine receptor A1 (Homo sapiens, UniProt P30542)
T1 sequence (P30542 whole entry): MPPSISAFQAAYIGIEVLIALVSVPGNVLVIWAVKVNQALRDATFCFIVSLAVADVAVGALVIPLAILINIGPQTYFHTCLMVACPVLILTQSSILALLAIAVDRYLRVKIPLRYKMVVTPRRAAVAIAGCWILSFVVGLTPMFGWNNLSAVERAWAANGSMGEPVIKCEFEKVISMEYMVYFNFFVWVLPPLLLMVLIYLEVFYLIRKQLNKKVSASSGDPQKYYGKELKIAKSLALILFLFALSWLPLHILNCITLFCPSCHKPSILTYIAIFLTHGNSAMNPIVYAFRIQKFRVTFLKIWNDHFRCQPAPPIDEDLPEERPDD

[1] = target: T2, Alpha-2B adrenergic receptor (Homo sapiens, UniProt P18089)
T2 sequence (P18089 whole entry): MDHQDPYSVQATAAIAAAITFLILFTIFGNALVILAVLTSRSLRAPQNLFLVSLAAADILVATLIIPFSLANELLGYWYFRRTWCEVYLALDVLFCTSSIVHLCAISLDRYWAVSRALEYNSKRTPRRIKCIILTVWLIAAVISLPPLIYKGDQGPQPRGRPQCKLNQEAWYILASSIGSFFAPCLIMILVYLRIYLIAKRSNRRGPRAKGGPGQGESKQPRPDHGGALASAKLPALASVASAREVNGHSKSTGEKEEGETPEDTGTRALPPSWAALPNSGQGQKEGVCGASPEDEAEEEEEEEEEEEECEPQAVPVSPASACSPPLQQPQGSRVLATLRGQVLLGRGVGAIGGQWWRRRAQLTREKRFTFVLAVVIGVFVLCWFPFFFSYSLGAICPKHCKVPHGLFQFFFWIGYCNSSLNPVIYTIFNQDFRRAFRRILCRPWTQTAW

[2] = target: T3, Type-1 angiotensin II receptor (Homo sapiens, UniProt P30556)
T3 sequence (P30556 whole entry): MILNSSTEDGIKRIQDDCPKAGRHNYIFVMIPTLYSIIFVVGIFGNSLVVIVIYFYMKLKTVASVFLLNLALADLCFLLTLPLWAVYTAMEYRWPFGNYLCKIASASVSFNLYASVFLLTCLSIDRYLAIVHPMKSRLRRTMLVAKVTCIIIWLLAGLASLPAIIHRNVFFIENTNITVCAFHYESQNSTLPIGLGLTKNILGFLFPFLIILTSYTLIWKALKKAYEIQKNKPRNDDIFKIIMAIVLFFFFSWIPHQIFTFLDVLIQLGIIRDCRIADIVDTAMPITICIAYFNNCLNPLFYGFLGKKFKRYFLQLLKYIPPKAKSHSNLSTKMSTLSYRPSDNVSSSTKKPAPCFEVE

Vasopressin V1a receptor = Vasopressin V1a receptor (Homo sapiens, UniProt P37288)
Vasopressin V2 receptor = Vasopressin V2 receptor (Homo sapiens, UniProt P30518)
[3] = target: Voltage-dependent L-type calcium channel subunit alpha-1C (Rattus norvegicus, UniProt P22002); format: functional
[4] = target: Gamma-aminobutyric acid receptor subunit alpha-1 (Rattus norvegicus, UniProt P62813); format: functional
Progesterone receptor [5] = target: T4, Progesterone receptor (Homo sapiens, UniProt P06401)
T4 sequence (P06401 whole entry): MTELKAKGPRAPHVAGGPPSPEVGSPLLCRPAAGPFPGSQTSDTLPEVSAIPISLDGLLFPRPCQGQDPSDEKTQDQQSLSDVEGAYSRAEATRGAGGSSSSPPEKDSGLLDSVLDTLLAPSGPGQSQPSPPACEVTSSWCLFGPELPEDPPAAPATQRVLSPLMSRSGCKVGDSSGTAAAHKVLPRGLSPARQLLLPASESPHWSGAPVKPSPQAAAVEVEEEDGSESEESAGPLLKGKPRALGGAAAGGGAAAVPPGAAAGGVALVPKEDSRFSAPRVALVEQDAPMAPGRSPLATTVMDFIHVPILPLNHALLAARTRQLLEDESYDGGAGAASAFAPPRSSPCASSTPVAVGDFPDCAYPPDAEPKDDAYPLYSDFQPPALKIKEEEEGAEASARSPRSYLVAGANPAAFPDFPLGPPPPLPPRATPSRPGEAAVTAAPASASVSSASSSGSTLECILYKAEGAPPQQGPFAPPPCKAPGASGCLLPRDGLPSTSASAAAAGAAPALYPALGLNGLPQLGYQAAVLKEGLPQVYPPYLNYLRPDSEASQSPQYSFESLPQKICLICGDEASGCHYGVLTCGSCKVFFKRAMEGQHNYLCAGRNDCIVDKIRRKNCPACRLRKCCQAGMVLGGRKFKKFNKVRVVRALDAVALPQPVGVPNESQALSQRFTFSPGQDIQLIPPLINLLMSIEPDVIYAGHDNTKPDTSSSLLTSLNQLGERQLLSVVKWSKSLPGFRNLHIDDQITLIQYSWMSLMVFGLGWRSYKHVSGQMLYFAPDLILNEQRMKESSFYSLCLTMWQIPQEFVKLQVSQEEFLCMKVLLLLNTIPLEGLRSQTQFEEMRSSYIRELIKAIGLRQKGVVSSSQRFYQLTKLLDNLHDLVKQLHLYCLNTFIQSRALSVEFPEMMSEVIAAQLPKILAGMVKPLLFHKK

[6] = target: Sodium-dependent noradrenaline transporter (Homo sapiens, UniProt P23975)
Cannabinoid receptor 1 = Cannabinoid receptor 1 (Homo sapiens, UniProt P21554); format: functional, cell-based
[7] = target: T5, 5-hydroxytryptamine receptor 1A (Homo sapiens, UniProt P08908); format: functional, cell-based
T5 sequence (P08908 whole entry): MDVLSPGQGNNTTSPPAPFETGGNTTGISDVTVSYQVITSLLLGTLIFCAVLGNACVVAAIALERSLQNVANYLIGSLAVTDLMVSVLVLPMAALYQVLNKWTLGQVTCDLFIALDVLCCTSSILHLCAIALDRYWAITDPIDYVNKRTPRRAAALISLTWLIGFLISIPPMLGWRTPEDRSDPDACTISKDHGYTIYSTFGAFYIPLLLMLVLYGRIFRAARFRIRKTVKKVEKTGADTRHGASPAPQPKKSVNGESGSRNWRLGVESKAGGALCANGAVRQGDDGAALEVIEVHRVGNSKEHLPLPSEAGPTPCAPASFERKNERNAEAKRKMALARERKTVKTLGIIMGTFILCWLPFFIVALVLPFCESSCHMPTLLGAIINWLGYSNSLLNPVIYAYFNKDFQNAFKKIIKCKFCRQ

Progesterone receptor [8] = target: T4, Progesterone receptor; format: functional
Progesterone receptor [9] = target: T4, Progesterone receptor; format: functional; remark: listed apart in the source
Also: assay procedure not described here.

Chain of Gamma-aminobutyric acid receptor subunit alpha-1 (P62813 whole entry): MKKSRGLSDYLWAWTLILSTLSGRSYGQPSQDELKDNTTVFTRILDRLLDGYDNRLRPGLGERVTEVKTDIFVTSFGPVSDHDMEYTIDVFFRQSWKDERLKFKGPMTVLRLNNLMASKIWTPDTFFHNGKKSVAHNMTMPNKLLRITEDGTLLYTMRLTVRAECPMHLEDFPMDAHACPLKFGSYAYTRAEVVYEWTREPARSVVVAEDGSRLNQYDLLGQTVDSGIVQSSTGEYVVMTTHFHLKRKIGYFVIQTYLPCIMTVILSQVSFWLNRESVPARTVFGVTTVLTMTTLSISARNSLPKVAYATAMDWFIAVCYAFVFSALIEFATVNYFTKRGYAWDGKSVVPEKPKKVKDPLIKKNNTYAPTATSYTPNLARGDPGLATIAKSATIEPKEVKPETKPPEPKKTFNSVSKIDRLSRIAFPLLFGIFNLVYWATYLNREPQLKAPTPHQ
Chain of Cannabinoid receptor 1 (P21554 whole entry): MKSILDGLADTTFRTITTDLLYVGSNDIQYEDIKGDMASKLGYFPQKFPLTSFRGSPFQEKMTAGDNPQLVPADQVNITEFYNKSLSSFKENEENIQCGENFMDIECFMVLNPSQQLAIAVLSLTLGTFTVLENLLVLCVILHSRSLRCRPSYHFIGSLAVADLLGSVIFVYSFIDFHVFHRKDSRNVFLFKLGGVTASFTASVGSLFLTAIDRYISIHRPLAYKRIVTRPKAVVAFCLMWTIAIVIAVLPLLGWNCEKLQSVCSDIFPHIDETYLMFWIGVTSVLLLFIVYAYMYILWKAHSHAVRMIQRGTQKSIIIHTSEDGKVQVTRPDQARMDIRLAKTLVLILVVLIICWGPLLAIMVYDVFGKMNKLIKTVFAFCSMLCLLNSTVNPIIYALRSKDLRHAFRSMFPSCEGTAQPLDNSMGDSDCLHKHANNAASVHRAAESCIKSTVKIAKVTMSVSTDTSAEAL
Chain of Vasopressin V2 receptor (P30518 whole entry): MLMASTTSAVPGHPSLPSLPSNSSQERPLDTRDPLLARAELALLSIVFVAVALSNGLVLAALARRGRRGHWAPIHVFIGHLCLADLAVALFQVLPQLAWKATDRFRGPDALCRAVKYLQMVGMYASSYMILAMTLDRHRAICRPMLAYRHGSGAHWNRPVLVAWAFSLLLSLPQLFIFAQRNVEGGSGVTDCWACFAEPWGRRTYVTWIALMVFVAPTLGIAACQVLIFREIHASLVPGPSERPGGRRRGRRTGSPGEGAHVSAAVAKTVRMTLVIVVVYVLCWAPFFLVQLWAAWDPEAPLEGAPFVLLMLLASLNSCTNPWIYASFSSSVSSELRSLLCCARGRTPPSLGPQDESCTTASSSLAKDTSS
Chain of Sodium-dependent noradrenaline transporter (P23975 whole entry): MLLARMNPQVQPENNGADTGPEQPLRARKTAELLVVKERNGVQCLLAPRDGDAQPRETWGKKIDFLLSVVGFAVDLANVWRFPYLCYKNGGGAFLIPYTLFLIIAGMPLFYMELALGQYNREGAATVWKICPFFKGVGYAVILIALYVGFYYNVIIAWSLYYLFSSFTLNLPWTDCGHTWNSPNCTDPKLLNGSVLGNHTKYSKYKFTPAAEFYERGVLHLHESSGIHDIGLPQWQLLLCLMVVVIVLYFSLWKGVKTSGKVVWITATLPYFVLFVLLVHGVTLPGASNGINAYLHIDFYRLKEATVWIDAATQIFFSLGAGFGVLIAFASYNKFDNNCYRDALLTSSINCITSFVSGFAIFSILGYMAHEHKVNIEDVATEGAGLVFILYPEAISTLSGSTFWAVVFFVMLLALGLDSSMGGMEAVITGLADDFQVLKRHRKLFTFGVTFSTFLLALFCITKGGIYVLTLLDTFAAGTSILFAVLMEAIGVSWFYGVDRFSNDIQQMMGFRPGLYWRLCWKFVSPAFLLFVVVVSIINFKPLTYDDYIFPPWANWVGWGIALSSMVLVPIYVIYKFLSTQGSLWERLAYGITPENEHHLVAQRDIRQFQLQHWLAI
Chain of Vasopressin V1a receptor (P37288 whole entry): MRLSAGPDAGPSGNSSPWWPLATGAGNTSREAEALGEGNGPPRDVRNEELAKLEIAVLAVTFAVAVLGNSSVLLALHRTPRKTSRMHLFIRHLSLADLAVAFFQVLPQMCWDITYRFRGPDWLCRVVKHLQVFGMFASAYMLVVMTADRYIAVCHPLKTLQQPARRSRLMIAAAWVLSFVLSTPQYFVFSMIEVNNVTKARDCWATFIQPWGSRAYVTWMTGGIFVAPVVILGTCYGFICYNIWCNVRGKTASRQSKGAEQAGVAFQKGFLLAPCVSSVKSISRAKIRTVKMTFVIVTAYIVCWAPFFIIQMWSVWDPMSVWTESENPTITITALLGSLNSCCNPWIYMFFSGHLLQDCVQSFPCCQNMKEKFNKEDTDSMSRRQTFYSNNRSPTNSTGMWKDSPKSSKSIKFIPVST
Chain of Voltage-dependent L-type calcium channel subunit alpha-1C (P22002 whole entry): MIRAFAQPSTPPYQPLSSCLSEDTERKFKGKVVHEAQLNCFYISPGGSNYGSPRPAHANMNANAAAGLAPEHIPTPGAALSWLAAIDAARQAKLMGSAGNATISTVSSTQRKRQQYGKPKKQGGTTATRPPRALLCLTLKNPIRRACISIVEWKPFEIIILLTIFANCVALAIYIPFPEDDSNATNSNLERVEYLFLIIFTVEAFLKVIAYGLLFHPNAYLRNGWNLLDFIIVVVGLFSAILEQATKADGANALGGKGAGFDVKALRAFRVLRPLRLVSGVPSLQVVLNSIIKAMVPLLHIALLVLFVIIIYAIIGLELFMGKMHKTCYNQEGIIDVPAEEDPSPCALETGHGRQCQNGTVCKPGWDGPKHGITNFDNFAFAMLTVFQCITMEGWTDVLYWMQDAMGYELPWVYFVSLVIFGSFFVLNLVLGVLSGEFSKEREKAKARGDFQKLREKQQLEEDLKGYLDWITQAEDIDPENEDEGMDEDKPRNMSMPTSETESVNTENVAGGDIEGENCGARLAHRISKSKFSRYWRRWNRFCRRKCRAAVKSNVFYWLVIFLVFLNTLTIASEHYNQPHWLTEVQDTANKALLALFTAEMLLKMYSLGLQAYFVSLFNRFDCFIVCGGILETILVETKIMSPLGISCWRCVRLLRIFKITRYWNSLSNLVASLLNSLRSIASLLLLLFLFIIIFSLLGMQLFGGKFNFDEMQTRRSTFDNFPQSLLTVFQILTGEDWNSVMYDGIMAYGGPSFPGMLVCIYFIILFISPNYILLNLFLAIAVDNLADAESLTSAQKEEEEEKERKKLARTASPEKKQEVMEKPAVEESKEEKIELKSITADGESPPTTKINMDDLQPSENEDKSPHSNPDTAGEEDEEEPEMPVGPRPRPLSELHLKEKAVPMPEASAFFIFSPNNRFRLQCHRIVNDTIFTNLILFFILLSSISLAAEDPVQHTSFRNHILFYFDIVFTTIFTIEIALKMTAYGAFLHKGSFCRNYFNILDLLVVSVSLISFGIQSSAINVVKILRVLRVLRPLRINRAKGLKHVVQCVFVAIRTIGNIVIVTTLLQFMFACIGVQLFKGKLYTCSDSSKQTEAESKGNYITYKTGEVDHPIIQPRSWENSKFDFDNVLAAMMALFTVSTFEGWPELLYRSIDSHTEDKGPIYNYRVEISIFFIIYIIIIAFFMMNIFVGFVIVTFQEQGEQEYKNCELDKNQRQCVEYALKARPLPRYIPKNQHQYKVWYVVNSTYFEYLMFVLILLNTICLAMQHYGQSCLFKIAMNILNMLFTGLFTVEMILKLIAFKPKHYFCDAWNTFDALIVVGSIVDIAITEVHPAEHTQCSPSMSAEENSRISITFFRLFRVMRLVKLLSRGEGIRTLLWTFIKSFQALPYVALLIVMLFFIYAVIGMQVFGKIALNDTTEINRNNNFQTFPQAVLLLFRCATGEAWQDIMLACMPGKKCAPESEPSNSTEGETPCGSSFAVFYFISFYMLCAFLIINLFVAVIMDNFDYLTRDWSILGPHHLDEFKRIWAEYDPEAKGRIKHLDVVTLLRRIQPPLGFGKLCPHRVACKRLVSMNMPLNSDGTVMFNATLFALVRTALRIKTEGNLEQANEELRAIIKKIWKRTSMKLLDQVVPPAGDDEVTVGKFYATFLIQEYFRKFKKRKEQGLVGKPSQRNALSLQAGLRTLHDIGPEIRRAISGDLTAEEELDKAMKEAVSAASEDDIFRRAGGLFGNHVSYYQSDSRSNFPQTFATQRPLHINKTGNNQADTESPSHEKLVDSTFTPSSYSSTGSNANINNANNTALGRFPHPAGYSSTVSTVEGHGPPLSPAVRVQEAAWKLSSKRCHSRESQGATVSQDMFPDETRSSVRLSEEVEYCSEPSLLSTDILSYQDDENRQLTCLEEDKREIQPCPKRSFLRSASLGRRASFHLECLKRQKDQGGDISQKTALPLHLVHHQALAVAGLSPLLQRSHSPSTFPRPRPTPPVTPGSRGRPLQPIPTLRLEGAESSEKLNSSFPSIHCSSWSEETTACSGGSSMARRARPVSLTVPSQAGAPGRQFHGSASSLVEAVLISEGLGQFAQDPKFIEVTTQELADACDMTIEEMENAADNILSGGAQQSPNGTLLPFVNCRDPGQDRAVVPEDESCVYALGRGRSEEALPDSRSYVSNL

SMILES | AC50 (Adenosine receptor A1) | AC50 [1] | AC50 [2] | AC50 (Vasopressin V1a receptor) | AC50 (Vasopressin V2 receptor) | AC50 [3] | AC50 [4] | AC50 (Progesterone receptor [5]) | AC50 [6] | AC50 (Cannabinoid receptor 1) | AC50 [7] | AC50 (Progesterone receptor [8]) | AC50 (Progesterone receptor [9])
O=C(/C=C/c1cccc(S(=O)(=O)Nc2ccccc2)c1)NO [BELINOSTAT] | > 30 µM | > 10 µM | > 30 µM | > 10 µM | > 30 µM | > 10 µM | > 10 µM | > 30 µM | > 10 µM |  |  |  | 
O=C(O)COCCN1CCN(C(c2ccccc2)c2ccc(Cl)cc2)CC1 (centres undefined) [CETIRIZINE] | > 30 µM | > 10 µM | > 30 µM | > 10 µM | > 30 µM |  |  | > 30 µM |  | > 30 µM | > 10 µM |  | 
O=S1(=O)CCN(CN2CCS(=O)(=O)NC2)CN1 [TAUROLIDINE] |  | 20 µM |  |  |  |  | > 10 µM | > 30 µM | > 30 µM | > 30 µM |  | > 30 µM | > 30 µM
